In BindingDB's records for patent US12065430 (Taiho Pharmaceutical, 2024):
pIC50: −log10 of the molar value.

These compounds were tested against T1, Son of sevenless homolog 1 [564-1049]/GTPase KRas [G12C] (UniProt P01116+Q07889, G12C) (assay: Evaluation of Inhibitory Activity of Compounds on KRAS G12C Nucleotide (GDP-GTP) Exchange Reaction).
T1 construct: 564-1049
Description: The inhibitory activity of compounds on exchange reaction of GDP into GppNHp in Bodipy (trademark) FL-bound KRAS G12C was examined by fluorescence measurement using human recombinant KRAS G12C and SOS1 proteins.For the preparation of KRAS G12C to which Bodipy FL GDP was bound, first, […] KRAS G12C (amino acid region: 1-169) and 1 mM Bodipy FL GDP (Invitrogen, G22360) were incubated for 1 hour in a buffer (20 mM Tris-HCl (pH 7.5), 50 mM NaCl, 1 mM DTT) in ice in the presence of 2.5 mM EDTA. Thereafter, MgCl2 with a final concentration of 10 mM was added, and the mixture was incubated at room temperature for 30 minutes. The protein was allowed to pass through a NAP-5 column to remove free nucleotides and was used for compound evaluation.For the measurement of the inhibitory activity of compounds on nucleotide exchange reaction, first, the compound of the present invention was diluted stepwise with dimethyl sulfoxide (DMSO). Subsequently, a solution of the gradually diluted compound of the present invention in DMSO (the final concentration of DMSO: 5%) and KRAS G12C (25 nM) bound to Bodipy FL GDP were added to a reaction buffer (20 mM Tris-HCl (pH 7.5), 100 mM NaCl, 1 mM MgCl2, 2 mM DTT, 0.1% Tween20), followed by preincubation at 25° C. for 4 hours. Thereafter, Son of Sevenless Homolog 1 (SOS1, amino acid region: 564-1049) and GppNHp (GMPPNP, Jena Bioscience GmbH, NU-401-50) were added such that their final concentration was 100 nM and 1 μM respectively, followed by reaction for 30 minutes. The change in fluorescence intensity of Bodipy FL (excitation wavelength: 485 nm, fluorescence wavelength: 520 nm) immediately after the start of reaction and after 30 minutes from the start of reaction was standardized. The signal value for only DMSO was determined to be 0% inhibition, and the signal value for no addition of GppNHp was determined to be 100% inhibition. The compound concentration at which 50% inhibition is achieved was determined to be IC50 (nM), and was calculated.

T1 sequence (P01116 whole entry G12C): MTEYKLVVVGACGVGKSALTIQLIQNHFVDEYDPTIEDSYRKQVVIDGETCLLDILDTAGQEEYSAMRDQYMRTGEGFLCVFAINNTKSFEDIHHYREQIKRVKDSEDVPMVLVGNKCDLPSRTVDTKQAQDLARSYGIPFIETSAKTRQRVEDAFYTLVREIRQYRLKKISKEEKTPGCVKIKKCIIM
T1 sequence (Q07889 564-1049): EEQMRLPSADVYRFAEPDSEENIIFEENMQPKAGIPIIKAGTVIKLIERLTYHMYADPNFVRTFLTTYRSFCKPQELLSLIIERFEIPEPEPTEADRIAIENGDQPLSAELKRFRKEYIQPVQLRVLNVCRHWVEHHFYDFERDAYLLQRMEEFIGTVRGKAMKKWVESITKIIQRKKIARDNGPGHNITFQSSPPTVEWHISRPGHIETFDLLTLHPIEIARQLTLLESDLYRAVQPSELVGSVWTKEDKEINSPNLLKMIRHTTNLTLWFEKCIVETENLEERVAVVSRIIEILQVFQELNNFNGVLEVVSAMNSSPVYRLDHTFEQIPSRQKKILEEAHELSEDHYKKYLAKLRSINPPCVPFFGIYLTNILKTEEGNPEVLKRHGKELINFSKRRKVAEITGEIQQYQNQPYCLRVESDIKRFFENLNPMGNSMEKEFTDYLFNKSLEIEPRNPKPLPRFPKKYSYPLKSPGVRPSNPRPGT

| Compound | pIC50 |
| --- | --- |
| C=CC(=O)N1C[C@@H](C)[C@@H](NC(=O)c2c(F)nc(CNc3n[nH]c4cc(Cl)c(C(C)(C)C)cc34)n2C)C1 [US12065430, Example 74] | 7.44 |
| C=CC(=O)N1C[C@H](NC(=O)c2c(F)nc(CNc3n[nH]c4cc(Cl)c(C(C)(C)C)cc34)n2C)[C@@H](F)C1 [US12065430, Example 75] | 7.80 |
| C=CC(=O)N1C[C@H](NC(=O)c2c(Cl)nc(CNc3n[nH]c4cc(Cl)c(C(C)(C)C)cc34)n2C)[C@@H](F)C1 [US12065430, Example 76] | 7.89 |
| C=CC(=O)N1CC[C@@H](N(C)C(=O)c2cnc(CNc3n[nH]c4cc(Cl)c(C(C)(C)C)cc34)n2C)C1 [US12065430, Example 77] | 6.85 |
| C=CC(=O)N1C[C@@H](C)[C@@H](NC(=O)c2c(Cl)nc(CNc3n[nH]c4cc(Cl)c(C(C)(C)C)cc34)n2C)C1 [US12065430, Example 78] | 7.70 |
| C/C=C/C(=O)N1CC(NC(=O)c2c(C)nc(CNc3n[nH]c4cc(Cl)c(C(C)(C)C)cc34)n2C(C)C)C1 [US12065430, Example 81] | 5.58 |
| CC#CC(=O)N1CC(NC(=O)c2c(C)nc(CNc3n[nH]c4cc(Cl)c(C(C)(C)C)cc34)n2C(C)C)C1 [US12065430, Example 82] | 6.68 |
| Cc1nc(CNc2n[nH]c3cc(Cl)c(C(C)(C)C)cc23)n(C(C)C)c1C(=O)NC1CN(C(=O)/C=C\Cl)C1 [US12065430, Example 83] | 5.63 |
| CC(C)n1c(CNc2n[nH]c3cc(Cl)c(C(C)(C)C)cc23)nc(C(F)F)c1C(=O)NC1CN(C(=O)/C=C/CN(C)C)C1 [US12065430, Example 84] | 7.20 |
| C=CS(=O)(=O)N1CC(NC(=O)c2c(C)nc(CNc3n[nH]c4cc(Cl)c(C(C)(C)C)cc34)n2C(C)C)C1 [US12065430, Example 86] | 7.24 |
| C=CC(=O)N1CC(NC(=O)c2c(Cl)nc(CNc3n[nH]c4cc(Cl)c(C(C)(C)C)cc34)n2CCCC)C1 [US12065430, Example 87] | 7.85 |
| C=CC(=O)N1CC(NC(=O)c2c(Cl)nc(CNc3n[nH]c4cc(Cl)c(C(C)(C)C)cc34)n2CC(C)C)C1 [US12065430, Example 89] | 8.15 |
| C=CC(=O)N1CC(NC(=O)c2c(Cl)nc(CNc3n[nH]c4cc(Cl)c(C(C)(C)C)cc34)n2CCOC)C1 [US12065430, Example 90] | 8.22 |
| C=CC(=O)N1CC(NC(=O)c2c(C(F)F)nc(CNc3n[nH]c4cc(Cl)c(C(C)(C)C)cc34)n2C2CCN(CC)C2)C1 (stereo unspecified) [US12065430, Example 92] | 8.00 |
| C=CC(=O)N1CC(NC(=O)c2c(C(F)F)nc(CNc3n[nH]c4cc(Cl)c(C(C)(C)C)cc34)n2C2CCN(C(C)C)C2)C1 (stereo unspecified) [US12065430, Example 93] | 8.22 |
| C=CC(=O)N1CC(NC(=O)c2c(Cl)nc(CNc3n[nH]c4cc(Cl)c(C(C)(C)C)cc34)n2-c2ccccn2)C1 [US12065430, Example 94] | 6.93 |
| C=CC(=O)N1CC(NC(=O)c2c(C(F)F)nc(CNc3n[nH]c4cc(Cl)c(C(C)(C)C)cc34)n2CC2CCCN2C(C)C)C1 (stereo unspecified) [US12065430, Example 95] | 7.36 |
| C=CC(=O)N1CC(NC(=O)c2c(C(F)F)nc(CNc3n[nH]c4cc(Cl)c(C(C)(C)C)cc34)n2C2CCN(C(C)=O)C2)C1 (stereo unspecified) [US12065430, Example 96] | 8.40 |
| C=CC(=O)N1CC(NC(=O)c2c(Cl)nc(CNc3n[nH]c4cc(Cl)c(C(C)(C)C)cc34)n2C2CCOCC2)C1 [US12065430, Example 101] | 8.15 |
| C=CC(=O)N1CC(NC(=O)c2c(Cl)nc(CNc3n[nH]c4cc(Cl)c(C(C)(C)C)cc34)n2C2CCCOC2)C1 (stereo unspecified) [US12065430, Example 104] | 8.05 |
| C=CC(=O)N1CC(NC(=O)c2c(Cl)nc(CNc3n[nH]c4cc(Cl)c(C(C)(C)C)cc34)n2C2CN(C(=O)OC(C)(C)C)C2)C1 [US12065430, Example 106] | 8.10 |
| C=CC(=O)N1CC(NC(=O)c2c(Cl)nc(CNc3n[nH]c4cc(Cl)c(C(C)(C)C)cc34)n2C2CCCCC2)C1 [US12065430, Example 109] | 7.64 |
| C=CC(=O)N1CC(NC(=O)c2c(Cl)nc(CNc3n[nH]c4cc(Cl)c(C(C)(C)C)cc34)n2CC2CCCC2)C1 [US12065430, Example 110] | 8.05 |
| C=CC(=O)N1CC(NC(=O)c2c(Cl)nc(CNc3n[nH]c4cc(Cl)c(C(C)(C)C)cc34)n2[C@H]2C[C@H](C)CC[C@H]2C(C)C)C1 [US12065430, Example 111] | 7.82 |
| C=CC(=O)N1CC(NC(=O)c2c(Cl)nc(CNc3n[nH]c4cc(Cl)c(C(C)(C)C)cc34)n2[C@@H]2CCN(C3COC3)C2)C1 [US12065430, Example 121] | 8.30 |
| C=CC(=O)N1CC(NC(=O)c2c(Cl)nc(CNc3n[nH]c4cc(Cl)c(C(C)(C)C)cc34)n2[C@@H]2CCN(Cc3ccccc3)C2)C1 [US12065430, Example 122] | 8.22 |
| C=CC(=O)N1CC(NC(=O)c2c(Cl)nc(CNc3n[nH]c4cc(Cl)c(C(C)(C)C)cc34)n2[C@@H]2CCN(c3ccccn3)C2)C1 [US12065430, Example 124] | 8.22 |

Second part, the compound after the results:

| pIC50 | Compound |
| --- | --- |
| 8.15 | C=CC(=O)N1CC(NC(=O)c2c(C(F)F)nc(CNc3n[nH]c4cc(Cl)c(C(C)(C)C)cc34)n2C2CCN(C)C2)C1 (stereo unspecified) [US12065430, Example 91] |
| 8.15 | C=CC(=O)N1CC(NC(=O)c2c(Cl)nc(CNc3n[nH]c4cc(Cl)c(C(C)(C)C)cc34)n2C2CC=CC2)C1 [US12065430, Example 98] |
| 8.15 | C=CC(=O)N1CC(NC(=O)c2c(Cl)nc(CNc3n[nH]c4cc(Cl)c(C(C)(C)C)cc34)n2[C@@H]2C[C@@H](O)[C@@H](O)C2)C1 [US12065430, Example 99] |
| 7.85 | C=CC(=O)N1CC(NC(=O)c2c(Cl)nc(CNc3n[nH]c4cc(Cl)c(C(C)(C)C)cc34)n2CC(F)F)C1 [US12065430, Example 100] |
| 8.30 | C=CC(=O)N1CC(NC(=O)c2c(Cl)nc(CNc3n[nH]c4cc(Cl)c(C(C)(C)C)cc34)n2C2CCN(C)CC2)C1 [US12065430, Example 103] |
| 8.10 | C=CC(=O)N1CC(NC(=O)c2c(Cl)nc(CNc3n[nH]c4cc(Cl)c(C(C)(C)C)cc34)n2C2CCCC2)C1 [US12065430, Example 105] |
| 8.05 | C=CC(=O)N1CC(NC(=O)c2c(Cl)nc(CNc3n[nH]c4cc(Cl)c(C(C)(C)C)cc34)n2C2CN(C(C)=O)C2)C1 [US12065430, Example 108] |
| 8.05 | C=CC(=O)N1CC(NC(=O)c2c(Cl)nc(CNc3n[nH]c4cc(Cl)c(C(C)(C)C)cc34)n2C2CCCN(CC(F)F)C2)C1 (stereo unspecified) [US12065430, Example 117] |
| 8.30 | C=CC(=O)N1CC(NC(=O)c2c(Cl)nc(CNc3n[nH]c4cc(Cl)c(C(C)(C)C)cc34)n2C2CCCN(C)C2)C1 (stereo unspecified) [US12065430, Example 118] |
| 7.96 | C=CC(=O)N1CC(NC(=O)c2c(Cl)nc(CNc3n[nH]c4cc(Cl)c(C(C)(C)C)cc34)n2[C@@H]2CCN(CCOC)C2)C1 [US12065430, Example 119] |
| 8.22 | C=CC(=O)N1CC(NC(=O)c2c(Cl)nc(CNc3n[nH]c4cc(Cl)c(C(C)(C)C)cc34)n2[C@@H]2CCN(C3CC3)C2)C1 [US12065430, Example 120] |
| 8.05 | C=CCN1CC[C@@H](n2c(CNc3n[nH]c4cc(Cl)c(C(C)(C)C)cc34)nc(Cl)c2C(=O)NC2CN(C(=O)C=C)C2)C1 [US12065430, Example 123] |
| 7.89 | C=CC(=O)N1CC(NC(=O)c2c(Cl)nc(CNc3n[nH]c4cc(Cl)c(C(C)(C)C)cc34)n2[C@@H]2CCN(CC(F)F)[C@H]2C)C1 [US12065430, Example 125] |
| 8.40 | C=CC(=O)N1CC(NC(=O)c2c(Cl)nc(CNc3n[nH]c4cc(Cl)c(C(C)(C)C)cc34)n2[C@@H]2C[C@@H](C)N(CC(F)F)C2)C1 [US12065430, Example 126] |
